Test results as given in patent US6344350B1, “Method for degradation of pinenes by bacillus isolates” (priority 1997, dated 2002).

Key:
pinene hydroxylase = experiment: Pinene hydroxylase activity in crude cell extracts; assay type: biochemical, Bacillus BR424; conditions: for pinene hydroxylase activity with cofactor: NADPH and NADH in place of FAD and potassium ferricyanide
Bacillus isolate BR425 = experiment: Growth of BR425 on monoterpenes as carbon source (CFU); assay type: cell-based; conditions: for growth in media containing the monoterpene as the carbon source: BR425; for optimal concentration for growth: BR425, M9 salts, monoterpene as carbon source, 50° C.
Procedure: For examination of growth rates on various substrates and metabolite production, BR425 was grown in 100 ml serum bottles containing 40 ml M9 salts and various concentrations of either α-pinene, β-pinene, limonene, carveol, carvone, or pinocarveol as the carbon source. The bottles were sealed with TEFLON-coated stoppers and aluminum caps (TEFLON is a trademark owned by E. I. du Pont and Nemours, Wilmington, Del.). Then the bottles were incubated in a water bath gyrorotatory shaker at 50° C. Growth of BR425 was assayed after incubations of 24, 48, and 72 hours as number of colony forming units (CFU).

BR424 = experiment: Growth of BR424 on monoterpenes; assay type: cell-based, Bacillus isolate BR424

Cc1cc2nc3c(=O)[nH]c(=O)nc-3n(C[C@H](O)[C@H](O)[C@H](O)COP(=O)(O)OP(=O)(O)OC[C@H]3O[C@@H](n4cnc5c(N)ncnc54)[C@H](O)[C@@H]3O)c2cc1C [FAD, Flavin Adenine Dinucleotide]
Enzyme activity (pinene hydroxylase; addition 0.1 mM FAD): 0.04 U/ml
Enzyme activity (pinene hydroxylase; addition 1 mM FAD): 0.47 U/ml

NC(=O)C1=CN([C@@H]2O[C@H](COP(=O)(O)OP(=O)(O)OC[C@H]3O[C@@H](n4cnc5c(N)ncnc54)[C@H](O)[C@@H]3O)[C@@H](O)[C@H]2O)C=CC1 [NADH]
pinene hydroxylase activity with cofactor (pinene hydroxylase): No pinene hydroxylase activity was detected

NC(=O)C1=CN([C@@H]2O[C@H](COP(=O)(O)OP(=O)(O)OC[C@H]3O[C@@H](n4cnc5c(N)ncnc54)[C@H](OP(=O)(O)O)[C@@H]3O)[C@@H](O)[C@H]2O)C=CC1 [NADPH]
pinene hydroxylase activity with cofactor (pinene hydroxylase): No pinene hydroxylase activity was detected

C=C(C)C1CC=C(C)[C@@H](O)C1 (stereo partly drawn) [carveol]
growth in media containing the monoterpene as the carbon source (Bacillus isolate BR425): shown to grow
optimal concentration for growth (Bacillus isolate BR425): 0.05%

C=C(C)C1CC=C(C)C(=O)C1 (stereo not drawn) [carvone]
growth in media containing the monoterpene as the carbon source (Bacillus isolate BR425): shown to grow
optimal concentration for growth (Bacillus isolate BR425): 0.01%

C=C(C)[C@H]1CC=C(C)CC1 [limonene]
growth in media containing the monoterpene as the carbon source (Bacillus isolate BR425): shown to grow
growth in media containing the monoterpene (BR424): did not appear to be able to grow

CC1(C)C2CC=C(CO)C1C2 (stereo not drawn) [myrtenol]
growth in media containing the monoterpene as the carbon source (Bacillus isolate BR425): did not appear to grow

CC1(C)C2CC3OC3(C)C1C2 (stereo not drawn) [pinene epoxide]
growth in media containing the monoterpene as the carbon source (Bacillus isolate BR425): did not appear to grow

CC1=CCC2CC1C2(C)C (stereo not drawn) [α-pinene]
optimal concentration for growth (Bacillus isolate BR425): 0.2%
growth in media containing the monoterpene (BR424): can grow

C=C1CCC2CC1C2(C)C (stereo not drawn) [β-pinene]
growth in media containing the monoterpene as the carbon source (Bacillus isolate BR425): shown to grow
optimal concentration for growth (Bacillus isolate BR425): 0.2%
growth in media containing the monoterpene (BR424): can grow

myrtenal
growth in media containing the monoterpene as the carbon source (Bacillus isolate BR425): did not appear to grow
